Assay results from patent publication US20260015350A1, “AZAQUINAZOLINE PAN-KRAS INHIBITORS” (Mirati Therapeutics, Inc., priority 2022, published 2026).

Experiments:
KRas^G12V = molecular target: T1, KRas^G12V (Homo sapiens, UniProt P01116, G12V); experiment: KRas binding assay (TR-FRET tracer displacement), KRas G12V
T1 construct: Biotinylated KRas (corresponding to amino acids 1-169, produced at Accelegan Inc.); biotin (biotinylated); purchased Accelegan Inc

KRas^G12R = molecular target: T2, KRas^G12R (Homo sapiens, UniProt P01116, G12R); experiment: KRas binding assay (TR-FRET tracer displacement), KRas G12R
T2 construct: Biotinylated KRas (corresponding to amino acids 1-169, produced at Accelegan Inc.); biotin (biotinylated); purchased Accelegan Inc
T2 sequence (P01116 1-169 isoform P01116-2 G12R): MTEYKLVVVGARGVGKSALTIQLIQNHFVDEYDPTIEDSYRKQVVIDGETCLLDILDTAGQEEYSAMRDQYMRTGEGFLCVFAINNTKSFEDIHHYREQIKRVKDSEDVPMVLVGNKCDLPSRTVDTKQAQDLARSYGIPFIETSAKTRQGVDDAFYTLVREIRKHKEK

KRas^WT = molecular target: T3, KRas^WT (Homo sapiens, UniProt P01116); experiment: KRas binding assay (TR-FRET tracer displacement), KRas WT; conditions: for inhibition at 0.01 µM: single point, 10 nM compound, TR-FRET; for IC50: TR-FRET tracer displacement, KRas WT
T3 construct: Biotinylated KRas (corresponding to amino acids 1-169, produced at Accelegan Inc.); biotin (biotinylated); purchased Accelegan Inc
T3 sequence (P01116 1-169 isoform P01116-2): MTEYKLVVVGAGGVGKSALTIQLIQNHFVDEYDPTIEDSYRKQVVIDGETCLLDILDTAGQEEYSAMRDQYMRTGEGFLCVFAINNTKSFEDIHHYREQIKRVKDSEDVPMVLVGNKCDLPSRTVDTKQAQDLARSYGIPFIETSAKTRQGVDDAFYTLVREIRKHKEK

KRas^G12A = molecular target: T4, KRas^G12A (Homo sapiens, UniProt P01116, G12A); experiment: KRas binding assay (TR-FRET tracer displacement), KRas G12A; conditions: for inhibition at 0.01 µM: single point, 10 nM compound, TR-FRET; for IC50: TR-FRET tracer displacement, KRas G12A
T4 construct: Biotinylated KRas (corresponding to amino acids 1-169, produced at Accelegan Inc.); biotin (biotinylated); purchased Accelegan Inc
T4 sequence (P01116 1-169 isoform P01116-2 G12A): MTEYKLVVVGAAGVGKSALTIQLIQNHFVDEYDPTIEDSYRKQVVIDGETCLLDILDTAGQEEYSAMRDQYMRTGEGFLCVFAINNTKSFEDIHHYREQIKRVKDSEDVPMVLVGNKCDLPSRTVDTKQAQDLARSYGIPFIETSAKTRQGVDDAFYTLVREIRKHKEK

KRas^G12D = molecular target: T5, KRas^G12D (Homo sapiens, UniProt P01116, G12D); experiment: KRas binding assay (TR-FRET tracer displacement), KRas G12D
T5 construct: Biotinylated KRas (corresponding to amino acids 1-169, produced at Accelegan Inc.); biotin (biotinylated); purchased Accelegan Inc
T5 sequence (P01116 1-169 isoform P01116-2 G12D): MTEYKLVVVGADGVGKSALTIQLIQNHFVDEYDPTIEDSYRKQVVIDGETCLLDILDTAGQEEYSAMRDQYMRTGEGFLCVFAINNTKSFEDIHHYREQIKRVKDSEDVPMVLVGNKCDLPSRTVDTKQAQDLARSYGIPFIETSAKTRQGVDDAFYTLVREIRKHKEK

[1] = tested on: KRas-mediated phosphorylation of ERK in AsPC-1 cells; experiment: Inhibition of KRas-mediated phosphorylation of ERK (Cisbio HTRF pERK), AsPC-1 cells; assay type: cell-based; conditions: Homo sapiens, ASPC1, AsPC-1 cells; HTRF pERK
Method in brief: (§1)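 Signal read by HTRF (d2/Cryptate antibody pair, 2 hr room-temperature incubation on lysate). Cells: 6,000 per well, 3 hr compound exposure. Titration: 10 uM highest, 3-fold, 10 points.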

[2] = tested on: KRas-mediated phosphorylation of ERK in HCT116 cells; experiment: Inhibition of KRas-mediated phosphorylation of ERK (Cisbio HTRF pERK), HCT116 cells; assay type: cell-based; conditions: Homo sapiens; for inhibition at 0.1 µM: HCT-116, 3 h, single point, 100 nM compound, 3 hrs; for IC50: HCT-116, HTRF pERK
Method in brief: (§2)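 Cells were seeded at 6,000 per well and treated for 3 hrs with compound in a 10-dose, 3-fold series from 10 uM (0.8% final DMSO), with 0.2 uM Trametinib as Min control. Lysates made at 4° C over 40 mins were incubated 2 hrs at room temperature with d2- and Cryptate-labelled antibodies, then read by HTRF.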

[3] = tested on: KRas-mediated phosphorylation of ERK in MKN1 cells; experiment: Inhibition of KRas-mediated phosphorylation of ERK (Cisbio HTRF pERK), MKN1 cells; assay type: cell-based; conditions: Homo sapiens, MKN-1
Method in brief: (§3)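 Seeding density was 6,000 cells/well; medium RPMI, 10% FBS. Read-out by homogeneous time-resolved fluorescence (pERK) after 4 hours covered at room temperature.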

[4] = tested on: KRas-mediated phosphorylation of ERK in PSN1 cells; experiment: Inhibition of KRas-mediated phosphorylation of ERK (Cisbio HTRF pERK), PSN1 cells; assay type: cell-based; conditions: Homo sapiens
Method in brief: as §3

KRas^G12C = molecular target: T6, KRas^G12C (Homo sapiens, UniProt P01116, G12C); experiment: KRas binding assay (TR-FRET tracer displacement), KRas G12C; conditions: for inhibition at 0.01 µM: single point, 10 nM compound, TR-FRET; for IC50: TR-FRET tracer displacement, KRas G12C
T6 construct: Biotinylated KRas (corresponding to amino acids 1-169, produced at Accelegan Inc.); biotin (biotinylated); purchased Accelegan Inc
T6 sequence (P01116 1-169 isoform P01116-2 G12C): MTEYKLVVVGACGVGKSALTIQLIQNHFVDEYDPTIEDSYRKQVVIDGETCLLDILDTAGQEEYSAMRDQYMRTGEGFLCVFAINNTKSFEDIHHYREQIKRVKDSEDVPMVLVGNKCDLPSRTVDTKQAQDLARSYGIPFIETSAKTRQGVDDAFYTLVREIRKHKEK

[5] = tested on: KRas-mediated phosphorylation of ERK in H727 cells; experiment: Inhibition of KRas-mediated phosphorylation of ERK (Cisbio HTRF pERK), H727 cells; assay type: cell-based; conditions: Homo sapiens, NCI-H727, H727 cells; HTRF pERK
Method in brief: as §1

[6] = tested on: KRas-mediated phosphorylation of ERK in A549 cells; experiment: Inhibition of KRas-mediated phosphorylation of ERK (Cisbio HTRF pERK), A549 cells; assay type: cell-based; conditions: Homo sapiens; for inhibition at 0.1 µM: A549, 3 h, single point, 100 nM compound, 3 hrs; for IC50: HTRF pERK
Method in brief: as §2

KRas^G12S = molecular target: T7, KRas^G12S (Homo sapiens, UniProt P01116, G12S); experiment: KRas binding assay (TR-FRET tracer displacement), KRas G12S; conditions: for inhibition at 0.01 µM: single point, 10 nM compound, TR-FRET; for IC50: TR-FRET tracer displacement, KRas G12S
T7 construct: Biotinylated KRas (corresponding to amino acids 1-169, produced at Accelegan Inc.); biotin (biotinylated); purchased Accelegan Inc
T7 sequence (P01116 1-169 isoform P01116-2 G12S): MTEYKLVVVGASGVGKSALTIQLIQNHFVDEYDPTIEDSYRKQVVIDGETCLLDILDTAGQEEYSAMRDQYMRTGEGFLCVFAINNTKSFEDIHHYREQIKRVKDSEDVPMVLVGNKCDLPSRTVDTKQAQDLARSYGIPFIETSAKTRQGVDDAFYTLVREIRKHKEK

KRas^Q61H = molecular target: T8, KRas^Q61H (Homo sapiens, UniProt P01116, Q61H); experiment: KRas binding assay (TR-FRET tracer displacement), KRas Q61H; conditions: for inhibition at 0.01 µM: single point, 10 nM compound, TR-FRET; for IC50: TR-FRET tracer displacement, KRas Q61H
T8 construct: Biotinylated KRas (corresponding to amino acids 1-169, produced at Accelegan Inc.); biotin (biotinylated); purchased Accelegan Inc
T8 sequence (P01116 1-169 isoform P01116-2 Q61H): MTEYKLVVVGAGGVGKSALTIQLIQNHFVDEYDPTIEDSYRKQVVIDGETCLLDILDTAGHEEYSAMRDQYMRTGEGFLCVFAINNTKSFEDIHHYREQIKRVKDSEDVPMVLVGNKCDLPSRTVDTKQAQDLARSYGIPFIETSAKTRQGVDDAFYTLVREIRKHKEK

[7] = tested on: KRas-mediated phosphorylation of ERK in H358 cells; experiment: Inhibition of KRas-mediated phosphorylation of ERK (Cisbio HTRF pERK), H358 cells; assay type: cell-based; conditions: Homo sapiens; for inhibition at 0.1 µM: NCI-H358, 3 h, single point, 100 nM compound, 3 hrs; for IC50: NCI-H358, HTRF pERK
Method in brief: as §1

[8] = tested on: KRas-mediated phosphorylation of ERK in H460 cells; experiment: Inhibition of KRas-mediated phosphorylation of ERK (Cisbio HTRF pERK), H460 cells; assay type: cell-based; conditions: Homo sapiens; for inhibition at 0.1 µM: NCI-H460, 3 h, single point, 100 nM compound, 3 hrs; for IC50: NCI-H460, HTRF pERK
Method in brief: as §1

KRas^G13D = molecular target: T9, KRas^G13D (Homo sapiens, UniProt P01116, G13D); experiment: KRas binding assay (TR-FRET tracer displacement), KRas G13D; conditions: for inhibition at 0.01 µM: single point, 10 nM compound, TR-FRET; for IC50: TR-FRET tracer displacement, KRas G13D
T9 construct: Biotinylated KRas (corresponding to amino acids 1-169, produced at Accelegan Inc.); biotin (biotinylated); purchased Accelegan Inc
T9 sequence (P01116 1-169 isoform P01116-2 G13D): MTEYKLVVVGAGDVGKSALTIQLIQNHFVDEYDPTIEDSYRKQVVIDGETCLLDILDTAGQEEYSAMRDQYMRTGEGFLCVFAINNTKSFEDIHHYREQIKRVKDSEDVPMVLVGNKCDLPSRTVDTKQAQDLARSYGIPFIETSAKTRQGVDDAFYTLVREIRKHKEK

T1 sequence (P01116 1-169 isoform P01116-2 G12V): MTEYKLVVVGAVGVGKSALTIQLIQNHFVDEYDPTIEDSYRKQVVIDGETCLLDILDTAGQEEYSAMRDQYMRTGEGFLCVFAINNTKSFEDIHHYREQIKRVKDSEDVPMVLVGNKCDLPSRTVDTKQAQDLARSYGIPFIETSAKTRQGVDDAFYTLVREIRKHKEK

Structure (SMILES)	IC50 (KRas^G12V) [nM]	IC50 (KRas^G12R) [nM]	inhibition at 0.01 µM (KRas^WT) [%]	inhibition at 0.01 µM (KRas^G12A) [%]	IC50 (KRas^G12D) [nM]	IC50 [1] [nM]	IC50 [3] [nM]	IC50 [4] [nM]	inhibition at 0.01 µM (KRas^G12C) [%]	IC50 [5] [nM]	inhibition at 0.01 µM (KRas^G12S) [%]	inhibition at 0.01 µM (KRas^Q61H) [%]	inhibition at 0.01 µM (KRas^G13D) [%]	IC50 [2] [nM]	IC50 [8] [nM]	IC50 (KRas^WT) [nM]	inhibition at 0.1 µM [2] [%]	inhibition at 0.1 µM [6] [%]	inhibition at 0.1 µM [7] [%]	inhibition at 0.1 µM [8] [%]	also measured
CCc1c(F)ccc2cc(O)cc(-c3ncc4c(N5CC6CC(O)C(C6)C5)nc(OC[C@]56CCCN5[C@H](COC(=O)N(C)C)CC6)nc4c3F)c12 (stereo partly drawn) [Example 707, ((3S,7aR)-7a-(((7-(8-ethyl-7-fluoro-3-hydroxynaphthalen-1-yl)-8-fluoro-4-(6-hydroxy-3-azabicyclo[3.2.1]octan-3-yl)pyrido[4,3-d]pyrimidin-2-yl)oxy)methyl)hexahydro-1H-pyrrolizin-3-yl)methyl dimethylcarbamate]	4	< 2	76	76	9	79	2	4410	84	24	85	85	85	–	–	–	47	71	88	84	–
CCc1c(F)ccc2cc(O)cc(-c3ncc4c(N5CCCC6(C5)NC(=O)NC6=O)nc(OC[C@]56CCCN5[C@H](COC(=O)N(C)C)CC6)nc4c3F)c12 (stereo partly drawn) [Example 709, ((3S,7aR)-7a-(((4-(2,4-dioxo-1,3,7-triazaspiro[4.5]decan-7-yl)-7-(8-ethyl-7-fluoro-3-hydroxynaphthalen-1-yl)-8-fluoropyrido[4,3-d]pyrimidin-2-yl)oxy)methyl)hexahydro-1H-pyrrolizin-3-yl)methyl dimethylcarbamate]	< 2	< 2	91	80	< 2	63	3	253	95	53	94	99	97	–	–	–	65	62	101	88	–
CCc1c(F)ccc2cc(O)cc(-c3ncc4c(N5CCCn6nc(C(=O)N(C)C)cc6C5)nc(OC[C@]56CCCN5[C@H](COC(=O)N(C)C)CC6)nc4c3F)c12 [Example 714, ((3S,7aR)-7a-(((4-(2-(dimethylcarbamoyl)-7,8-dihydro-4H-pyrazolo[1,5-a][1,4]diazepin-5(6H)-yl)-7-(8-ethyl-7-fluoro-3-hydroxynaphthalen-1-yl)-8-fluoropyrido[4,3-d]pyrimidin-2-yl)oxy)methyl)hexahydro-1H-pyrrolizin-3-yl)methyl dimethylcarbamate]	< 2	2	85	89	< 2	26	95	> 10000	94	89	95	87	85	760	193	–	–	16	73	–	–

Further lines, with some results ahead:

IC50 (KRas^G12V) [nM]	IC50 (KRas^G12R) [nM]	inhibition at 0.01 µM (KRas^WT) [%]	inhibition at 0.01 µM (KRas^G12A) [%]	IC50 (KRas^G12D) [nM]	IC50 [1] [nM]	IC50 [3] [nM]	IC50 [4] [nM]	inhibition at 0.01 µM (KRas^G12C) [%]	IC50 [5] [nM]	inhibition at 0.01 µM (KRas^G12S) [%]	inhibition at 0.01 µM (KRas^Q61H) [%]	inhibition at 0.01 µM (KRas^G13D) [%]	IC50 [2] [nM]	IC50 [8] [nM]	IC50 (KRas^WT) [nM]	Structure (SMILES)	inhibition at 0.1 µM [2] [%]	inhibition at 0.1 µM [6] [%]	inhibition at 0.1 µM [7] [%]	inhibition at 0.1 µM [8] [%]	also measured
< 2	< 2	93	83	< 2	39	9	1020	97	273	95	98	98	–	–	–	CCc1c(F)ccc2cc(O)cc(-c3ncc4c(N5CCCC6(CNS(=O)(=O)N6)C5)nc(OC[C@]56CCCN5[C@H](COC(=O)N(C)C)CC6)nc4c3F)c12 (stereo partly drawn) [Example 716, ((3S,7aR)-7a-(((4-(2,2-dioxido-2-thia-1,3,7-triazaspiro[4.5]decan-7-yl)-7-(8-ethyl-7-fluoro-3-hydroxynaphthalen-1-yl)-8-fluoropyrido[4,3-d]pyrimidin-2-yl)oxy)methyl)hexahydro-1H-pyrrolizin-3-yl)methyl dimethylcarbamate]	34	37	71	56	–
5	7	44	47	13	420	9	7190	53	79	60	46	53	–	–	13	Oc1cc(-c2ncc3c(N4C[C@@H]5C[C@H](C4)[C@H](O)C5)nc(OC[C@@]45CCCN4C[C@H](F)C5)nc3c2F)c2ccccc2c1 [Example 737, (1R,5R,6R)-3-(8-fluoro-2-(((2R,7aS)-2-fluorohexahydro-1H-pyrrolizin-7a-yl)methoxy)-7-(3-hydroxynaphthalen-1-yl)pyrido[4,3-d]pyrimidin-4-yl)-3-azabicyclo[3.2.1]octan-6-ol]	39	17	8	27	IC50 (KRas^G12A): 10 nM; IC50 (KRas^G12C): 10 nM; IC50 (KRas^G12S): 8 nM; IC50 (KRas^Q61H): 14 nM; IC50 (KRas^G13D): 12 nM
< 2	< 2	–	–	< 2	867	511	4280	–	701	–	–	–	1710	516	4	O=S1(=O)NCC2(CCCN(c3nc(OCC45CCCN4CCC5)nc4c(F)c(-c5cc(O)cc(Cl)c5C5CC5)ncc34)C2)N1 (stereo not shown) [Example 745, 7-(7-(3-chloro-2-cyclopropyl-5-hydroxyphenyl)-8-fluoro-2-((hexahydro-1H-pyrrolizin-7a-yl)methoxy)pyrido[4,3-d]pyrimidin-4-yl)-2-thia-1,3,7-triazaspiro[4.5]decane 2,2-dioxide]	–	–	–	–	IC50 (KRas^G12A): < 2 nM; IC50 (KRas^G12C): 3 nM; IC50 [6]: 815 nM; IC50 (KRas^G12S): 5 nM; IC50 (KRas^Q61H): < 2 nM; IC50 [7]: 185 nM; IC50 (KRas^G13D): 3 nM
< 2	< 2	–	–	2	704	139	2550	–	220	–	–	–	134	327	< 2	O=S1(=O)NCC2(CCCN(c3nc(OC[C@@]45CCCN4C[C@H](F)C5)nc4c(F)c(-c5c6ccccc6cc6[nH]ncc56)ncc34)C2)N1 (stereo partly drawn) [Example 762, 7-(7-(1H-benzo[f]indazol-4-yl)-8-fluoro-2-(((2R,7aS)-2-fluorohexahydro-1H-pyrrolizin-7a-yl)methoxy)pyrido[4,3-d]pyrimidin-4-yl)-2-thia-1,3,7-triazaspiro[4.5]decane 2,2-dioxide]	36	–	–	22	IC50 (KRas^G12A): < 2 nM; IC50 (KRas^G12C): < 2 nM; IC50 [6]: 234 nM; IC50 (KRas^G12S): < 2 nM; IC50 (KRas^Q61H): < 2 nM; IC50 [7]: 40 nM; IC50 (KRas^G13D): < 2 nM
